Assays:
Experiment in all cases: relative viability (nuclei count vs DMSO), 5 days (fraction); higher = more cells survive
NCI-H2347 = tested on: NCI-H2347
Summary of the method: (§1)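 Each reported value is a median over duplicate plates. It expresses relative viability: treated-well nuclei count divided by vehicle-well nuclei count. Lung cancer cell lines in 1536-well plates were dosed by pin tool a day after seeding, alone with one drug or with a fixed anchor-drug dose plus five library-drug doses (not always all listed) in √10 steps, and nuclei were counted after 5 days.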

EPLC-272H = tested on: EPLC-272H
Summary of the method: as §1

H3255 = tested on: H3255
Summary of the method: as §1

NCI-H661 = tested on: NCI-H661
Summary of the method: as §1

201T = tested on: 201T
Summary of the method: as §1

COR-L 105 = tested on: COR-L 105
Summary of the method: as §1

NCI-H2087 = tested on: NCI-H2087
Summary of the method: as §1

NCI-H2126 = tested on: NCI-H2126
Summary of the method: as §1

NCI-H2405 = tested on: NCI-H2405
Summary of the method: as §1

HCC-78 = tested on: HCC-78
Summary of the method: as §1

LC-2-ad = tested on: LC-2-ad
Summary of the method: as §1

NCI-H1666 = tested on: NCI-H1666
Summary of the method: as §1

LCLC-97TM1 = tested on: LCLC-97TM1
Summary of the method: as §1

NCI-H23 = tested on: NCI-H23
Summary of the method: as §1

NCI-H520 = tested on: NCI-H520
Summary of the method: as §1

HCC-827 = tested on: HCC-827
Summary of the method: as §1

NCI-H1915 = tested on: NCI-H1915
Summary of the method: as §1

NCI-H647 = tested on: NCI-H647
Summary of the method: as §1

PC-14 = tested on: PC-14
Summary of the method: as §1

RERF-LC-KJ = tested on: RERF-LC-KJ
Summary of the method: as §1

NCI-H650 = tested on: NCI-H650
Summary of the method: as §1

O=c1cc(-c2cccc3c2Sc2ccccc2S3)oc(N2CCOCC2)c1 + CS(=O)(=O)CCNCc1ccc(-c2ccc3ncnc(Nc4ccc(OCc5cccc(F)c5)c(Cl)c4)c3c2)o1 [Lapatinib] (partner 2 µM)
relative viability (NCI-H2347; first compound 0.08 µM): 0.978 | relative viability (NCI-H2347; first compound 0.253 µM): 1.09 | relative viability (NCI-H2347; first compound 0.8 µM): 1.02 | relative viability (NCI-H2347; first compound 2.53 µM): 1.04 | relative viability (NCI-H2347; first compound 8 µM): 1.19 | relative viability (EPLC-272H; first compound 0.08 µM): 0.935 | relative viability (EPLC-272H; first compound 0.253 µM): 0.841 | relative viability (EPLC-272H; first compound 0.8 µM): 0.867 | relative viability (EPLC-272H; first compound 2.53 µM): 0.779 | relative viability (EPLC-272H; first compound 8 µM): 1.2 | relative viability (H3255; first compound 0.08 µM): 0.239 | relative viability (H3255; first compound 0.253 µM): 0.226 | relative viability (H3255; first compound 0.8 µM): 0.224 | relative viability (H3255; first compound 2.53 µM): 0.231 | relative viability (H3255; first compound 8 µM): 0.225 | relative viability (NCI-H661; first compound 0.08 µM): 0.481 | relative viability (NCI-H661; first compound 0.253 µM): 0.412 | relative viability (NCI-H661; first compound 0.8 µM): 0.543 | relative viability (NCI-H661; first compound 2.53 µM): 0.464 | relative viability (NCI-H661; first compound 8 µM): 0.579 | relative viability (201T; first compound 0.08 µM): 1.02 | relative viability (201T; first compound 0.253 µM): 1.09 | relative viability (201T; first compound 0.8 µM): 0.915 | relative viability (201T; first compound 2.53 µM): 0.951 | relative viability (201T; first compound 8 µM): 1 | relative viability (COR-L 105; first compound 0.08 µM): 0.359 | relative viability (COR-L 105; first compound 0.253 µM): 0.323 | relative viability (COR-L 105; first compound 0.8 µM): 0.306 | relative viability (COR-L 105; first compound 2.53 µM): 0.375 | relative viability (COR-L 105; first compound 8 µM): 0.386 | relative viability (NCI-H2087; first compound 0.08 µM): 0.981 | relative viability (NCI-H2087; first compound 0.253 µM): 0.98 | relative viability (NCI-H2087; first compound 0.8 µM): 1.13 | relative viability (NCI-H2087; first compound 2.53 µM): 0.959 | relative viability (NCI-H2087; first compound 8 µM): 1.4 | relative viability (NCI-H2126; first compound 0.08 µM): 0.715 | relative viability (NCI-H2126; first compound 0.253 µM): 0.801 | relative viability (NCI-H2126; first compound 0.8 µM): 0.679 | relative viability (NCI-H2126; first compound 2.53 µM): 0.679 | relative viability (NCI-H2126; first compound 8 µM): 0.796 | relative viability (NCI-H2405; first compound 0.08 µM): 0.928 | relative viability (NCI-H2405; first compound 0.253 µM): 1.1 | relative viability (NCI-H2405; first compound 0.8 µM): 1.02 | relative viability (NCI-H2405; first compound 2.53 µM): 0.937 | relative viability (NCI-H2405; first compound 8 µM): 1.02 | relative viability (HCC-78; first compound 0.08 µM): 0.873 | relative viability (HCC-78; first compound 0.253 µM): 0.822 | relative viability (HCC-78; first compound 0.8 µM): 0.718 | relative viability (HCC-78; first compound 2.53 µM): 0.735 | relative viability (HCC-78; first compound 8 µM): 0.901 | relative viability (LC-2-ad; first compound 0.08 µM): 0.963 | relative viability (LC-2-ad; first compound 0.253 µM): 1.04 | relative viability (LC-2-ad; first compound 0.8 µM): 1.06 | relative viability (LC-2-ad; first compound 2.53 µM): 0.921 | relative viability (LC-2-ad; first compound 8 µM): 0.956 | relative viability (NCI-H1666; first compound 0.08 µM): 0.533 | relative viability (NCI-H1666; first compound 0.253 µM): 0.781 | relative viability (NCI-H1666; first compound 0.8 µM): 0.485 | relative viability (NCI-H1666; first compound 2.53 µM): 0.652 | relative viability (NCI-H1666; first compound 8 µM): 0.573 | relative viability (LCLC-97TM1; first compound 0.08 µM): 0.753 | relative viability (LCLC-97TM1; first compound 0.253 µM): 0.781 | relative viability (LCLC-97TM1; first compound 0.8 µM): 1.25 | relative viability (LCLC-97TM1; first compound 2.53 µM): 0.685 | relative viability (LCLC-97TM1; first compound 8 µM): 1.18 | relative viability (NCI-H23; first compound 0.08 µM): 1.1 | relative viability (NCI-H23; first compound 0.253 µM): 1.34 | relative viability (NCI-H23; first compound 0.8 µM): 1.14 | relative viability (NCI-H23; first compound 2.53 µM): 0.868 | relative viability (NCI-H23; first compound 8 µM): 1.17 | relative viability (NCI-H520; first compound 0.08 µM): 0.767 | relative viability (NCI-H520; first compound 0.253 µM): 1.13 | relative viability (NCI-H520; first compound 0.8 µM): 0.973 | relative viability (NCI-H520; first compound 2.53 µM): 0.787 | relative viability (NCI-H520; first compound 8 µM): 0.961 | relative viability (HCC-827; first compound 0.08 µM): 0.189 | relative viability (HCC-827; first compound 0.253 µM): 0.196 | relative viability (HCC-827; first compound 0.8 µM): 0.168 | relative viability (HCC-827; first compound 2.53 µM): 0.189 | relative viability (HCC-827; first compound 8 µM): 0.178 | relative viability (NCI-H1915; first compound 0.08 µM): 1.02 | relative viability (NCI-H1915; first compound 0.253 µM): 1.04 | relative viability (NCI-H1915; first compound 0.8 µM): 1.13 | relative viability (NCI-H1915; first compound 2.53 µM): 0.905 | relative viability (NCI-H1915; first compound 8 µM): 1.06 | relative viability (NCI-H647; first compound 0.08 µM): 1.19 | relative viability (NCI-H647; first compound 0.253 µM): 1.21 | relative viability (NCI-H647; first compound 0.8 µM): 0.985 | relative viability (NCI-H647; first compound 2.53 µM): 0.886 | relative viability (NCI-H647; first compound 8 µM): 0.83 | relative viability (PC-14; first compound 0.08 µM): 0.291 | relative viability (PC-14; first compound 0.253 µM): 0.388 | relative viability (PC-14; first compound 0.8 µM): 0.245 | relative viability (PC-14; first compound 2.53 µM): 0.245 | relative viability (PC-14; first compound 8 µM): 0.308 | relative viability (RERF-LC-KJ; first compound 0.08 µM): 0.836 | relative viability (RERF-LC-KJ; first compound 0.253 µM): 0.998 | relative viability (RERF-LC-KJ; first compound 0.8 µM): 0.876 | relative viability (RERF-LC-KJ; first compound 2.53 µM): 0.907 | relative viability (RERF-LC-KJ; first compound 8 µM): 0.98 | relative viability (NCI-H650; first compound 0.08 µM): 0.819 | relative viability (NCI-H650; first compound 0.253 µM): 0.84 | relative viability (NCI-H650; first compound 0.8 µM): 1.16 | relative viability (NCI-H650; first compound 2.53 µM): 0.706 | relative viability (NCI-H650; first compound 8 µM): 0.842
